Experimental findings from patent US6583143B2, “CRF receptor antagonists and methods relating thereto” (Neurocrine Biosciences, Inc., priority 2000, dated 2003) are described below.

The Ki is the equilibrium dissociation constant of an inhibitor or competing ligand from its target.

The experiment has as its target T1, human CRF receptors (Homo sapiens, UniProt P34998).
T1 construct: expressed in transfected cells; membrane suspension of stably transfected cells
T1 sequence (P34998 24-415): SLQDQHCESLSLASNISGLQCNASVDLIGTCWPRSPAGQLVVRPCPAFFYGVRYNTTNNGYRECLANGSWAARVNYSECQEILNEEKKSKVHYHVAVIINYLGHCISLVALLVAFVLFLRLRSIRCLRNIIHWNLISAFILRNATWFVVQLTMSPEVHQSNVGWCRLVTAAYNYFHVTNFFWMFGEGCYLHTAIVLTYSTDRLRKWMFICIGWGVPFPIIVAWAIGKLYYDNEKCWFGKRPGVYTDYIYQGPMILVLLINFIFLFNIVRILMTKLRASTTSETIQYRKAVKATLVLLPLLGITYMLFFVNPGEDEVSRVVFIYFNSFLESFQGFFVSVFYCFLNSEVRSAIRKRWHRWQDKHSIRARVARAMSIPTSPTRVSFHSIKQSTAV
As to the kind of experiment: CRF receptor radioligand binding assay (displacement of [125I]tyrosine-ovine CRF). As to conditions: CRF receptor binding affinity, assayed by the methods of Example 9. The source says: The effectiveness of a compound as a CRF receptor antagonist may be determined by various assay methods. Suitable CRF antagonists of this invention are capable of inhibiting the specific binding of CRF to its receptor and antagonizing activities associated with CRF. A compound of structure (I) may be assessed for activity as a CRF antagonist by one or more generally accepted assays for this purpose, including (but not limited to) the assays disclosed by DeSouza et al. (J. Neuroscience 7:88, 1987) and Battaglia et al. (Synapse 1:572, 1987). […] CRF receptor affinity may be determined by binding studies that measure the ability of a compound to inhibit the binding of a radiolabeled CRF (e.g., [^125I]tyrosine-CRF) to its receptor (e.g., receptors prepared from rat cerebral cortex membranes). […]
The compounds of this invention may be evaluated for binding activity to the CRF receptor by a standard radioligand binding assay as generally described by DeSouza et al. (J. Neurosci. 7:88-100, 1987). […]
More specifically, the binding assay is performed in 1.5 ml Eppendorf tubes using approximately 1×10^6 cells per tube stably transfected with human CRF receptors. […] Following two washes of the pellets, the tubes are cut just above the pellet and monitored in a gamma counter for radioactivity at approximately 80% efficiency. […]

Structures are written as SMILES.

Consider `CCCC(CCC)N1N=C(C)n2nc(-c3ccc(OC)cc3C)c3nc(C)cc1c32` [Compound 8-3], for which the Ki is less than 100 nM.
